Experimental findings from US7576198B1, “Integrase inhibitors containing aromatic heterocycle derivatives” (Shionogi & Co., Ltd., priority 1999, dated 2009) are described below.

Where only a bound is given, the exact number is not on record here.

The target of the first test is HIV-1 integrase (Human immunodeficiency virus type 1 group M subtype B, UniProt P04585). Put plainly: HIV-1 integrase inhibition assay (microtiter plate, substrate DNA/target DNA, OD 405 nm). In kind it is biochemical. As to conditions: HIV-1 integrase; concentration of the compound at percent inhibition 50%; OD 405 nm. As for the experimental part: The inhibitory effects of the compounds of the present invention for HIV-1 integrase have been determined by the assay described below.
(1) Preparation of DNA solutions.
Substrate DNA and target DNA, which sequences were indicated below, were synthesized by Amersham Pharmacia Biotech and dissolved in KTE buffer (composition: 100 mM KCl, 1 mM EDTA, 10 mM Tris-HCl (pH 7.6)) at concentration of 2 pmol/μl and 5 pmol/μl, respectively. The DNA solutions were annealed with each complement by slowly cooling after heating.
(Substrate DNA) • 5′-Biotin-ACCCTTTTAGTCAGTGTGGAAAATCTCTAGCAGT-3′ • 3-GAAAATCAGTCACACCTTTTAGAGATCGTCA-5′
5′-TGACCAAGGGCTAATTCACT-Dig-3′
3′-Dig-ACTGGTTCCCGATTAAGTGA-5′
(2) Calculations of the percent inhibitions (the IC50 values of test compounds)
Streptavidin, obtained from Vector Laboratories, was dissolved in 0.1 M carbonate buffer (composition: 90 mM Na2CO3, 10 mM NaHCO3) at concentration of 40 μg/ml. After coating each well of microtiter plates (obtained from NUNC) with 50 μl of the above solution at 4° C. over night, each well was washed twice with PBS (composition: […], 0.27 mM KCl, 0.43 mM Na2HPO4, 0.14 mM KH2PO4) and blocked with 300 μl of 1% skim milk in PBS for 30 min. Additionally, each well was washed twice with PBS and added 50 μl of substrate DNA solution (2 pmol/μl). The microtiter plates were kept at room temperature for 30 min. Then, each well was washed twice with PBS and once with H2O.
Subsequently, in the each well prepared above were added 45 μl of the reaction buffer prepared from 12 μl of the buffer (composition: 150 mM MOPS (pH 7.2), 75 mM MnCl2, 50 mM 2-mercaptoethanol, 25% glycerol, 500 μg/ml bovine serum albumin-fraction V), 1 μl of target DNA (5 pmol/μl), and 32 μl of the distilled water. Additionally, 6 μl of either a test compound in DMSO or DMSO for positive control (PC) was mixed with the above reaction buffer, then 9 μl of an integrase solution (30 pmol) was added and mixed well. In the well of negative control (NC) was added 9 μl of the integrase dilution buffer (composition: 20 mM MOPS (pH7.2), 400 mM potassium glutamate, 1 mM EDTA, 0.1% NP-40, 20% glycerol, 1 mM DTT, 4M urea).
The microtiter plates were incubated at 30° C. for 1 hour. The reaction solution was removed and each well was washed twice with PBS. Subsequently, each well of the microtiter plates was filled with 100 μl of anti-digoxigenin antibody labeled with alkaline phosphatase (Sheep Fab fragment: obtained from Boehringer) and incubated at 30° C. for 1 hour. Then, each well was washed twice with 0.05% Tween20 in PBS and once with PBS. Next, 150 μl of the Alkaline phosphatase reaction buffer (composition: 10 mM p-Nitrophenylphosphate (obtained from Vector Laboratories), 5 mM MgCl2, 100 mM NaCl, 100 mM Tris-HCl (pH 9.5)) was added in each well. The microtiter plates were incubated at 30° C. for 2 hours and the reaction was terminated by the addition of 50 μl of 1 N NaOH solution. The optical density (OD) at 405 nm of each well was measured and the percent inhibition was determined by the following expression. The percent inhibition (%)=100[1−{(C abs.−NC abs.)/(PC abs.−NC abs.)}] • C abs.; the OD of the well of the compounds • NC abs. the OD of the negative control (NC) • PC abs.: the OD of the positive control (PC)
The following Compounds (X-1 to 3) were used in order to compare an activity of the present compound with that of the compounds (X-1 to 3). Compound No. in the Table 1 is the same as compound No. of the above example.
Consider `O=C(O)C(=O)c1c(F)ccc(COc2ccc(C=C(O)C(=O)O)nc2)c1F` [Compound I-17, 3-[5-(3-Carboxyoxalyl-2,4-difluorobenzyloxy)-pyridin-2-yl]-2-hydroxy acrylic acid], for which the “IC50” value worked out at 3.4 µg/mL.

The test is the same for the next values; noted with them: HIV-1 integrase; concentration of the compound at percent inhibition 50%; OD 405 nm; read-out: IC50 (μg/ml) (converted).
For `OC(=Cc1ccc(OCc2ccccc2)cn1)c1nccs1` [Compound I-15, 2-(5-Benzyloxypyridin-2-yl)-1-thiazol-2-yl ethenol], the IC50 is 10200 nM.

As to `O=C(O)/C(O)=C/c1nnc(CCc2ccccc2)s1` [Compound I-35, 3-[5-(2-Phenylethyl)[1,3,4]thiadiazol-2-yl)-2-hydroxy acrylic acid], the IC50 is 1590 nM.

Regarding `O=C(O)/C(O)=C/c1ccc2ccccc2c1` [Compound X-2, reference compound], the IC50 was > 467000 nM.

As for `O=C(O)C(O)=Cc1ccc(OCc2ccccc2)cn1` [Compound I-3, 3-(5-Benzyloxypyridin-2-yl)-2-hydroxy acrylic acid], the IC50 was 1140 nM.

With `COc1cc(/C=C(\O)C(=O)O)ccc1OCc1ccccc1` [Compound X-1, reference compound], the IC50 was > 333000 nM.

As for `CCOC(=O)C(O)=Cc1ccc(OCc2ccc(F)cc2F)cn1` [Compound I-46, 3-[5-(2,4-Difluorobenzyloxy)pyridin-2-yl]-2-hydroxy acrylic acid ethyl ester], the IC50 is 1640 nM.

Turning to `O=C(O)/C(O)=C/c1ccc(OCc2ccc(C(F)(F)F)cc2)cn1` [Compound I-49, 3-[5-(4-Trifluoromethylbenzyloxy)pyridin-2-yl]-2-hydroxy acrylic acid], the IC50 is 16500 nM.

Consider `O=C(O)C(O)=Cc1ccc(OCc2ccc(F)cc2F)cn1` [Compound I-47, 3-[5-(2,4-Difluorobenzyloxy)pyridin-2-yl]-2-hydroxy acrylic acid], for which the IC50 is 1630 nM.

For `CCOC(=O)C(O)=Cc1ccc(OCc2ccccc2)cn1` [Compound I-2, 3-(5-Benzyloxypyridin-2-yl)-2-hydroxy acrylic acid ethyl ester], the IC50 was 1770 nM.

Turning to `CC(C)CCOc1ccc(/C=C(\O)C(=O)O)nc1` [Compound I-9, 3-(5-Isopentoxypyridin-2-yl)-2-hydroxy acrylic acid], the IC50 is 11500 nM.

With `O=C(O)/C(O)=C/c1ccc(OCC2CCCCC2)cn1` [Compound I-7, 3-[5-(Cyclohexylmethoxy)pyridin-2-yl]-2-hydroxy acrylic acid], the IC50 is 4690 nM.

Regarding `OC(=Cc1ccc(OCc2ccccc2)cn1)c1nc[nH]n1` [Compound I-14, 2-(5-Benzyloxypyridin-2-yl)-1-(1H-[1,2,4]triazol-3-yl) ethenol], the IC50 was 3230 nM.

Turning to `O=C(O)C(O)=Cc1cc(CCc2ccccc2)ncn1` [Compound I-25, 3-[6-(2-Phenylethyl)pyrimidin-4-yl)-2-hydroxy acrylic acid], the IC50 is 481 nM.

For `CCOC(=O)C(O)=Cc1cc(CCc2ccccc2)ncn1` [Compound I-24, 3-[6-(2-Phenylethyl)pyrimidin-4-yl)-2-hydroxy acrylic acid ethyl ester], the IC50 is 1010 nM.

`O=C(O)/C(O)=C/c1ccc(OCc2ccccc2)cc1` [Compound X-3, reference compound]: the IC50 was > 370000 nM.

Turning to `O=C(O)/C(O)=C/c1cnc(CCc2ccccc2)cn1` [Compound I-27, 3-[5-(2-Phenylethyl)pyradin-2-yl]-2-hydroxy acrylic acid], the IC50 was 2520 nM.

Staying with this test, now noted: besides the compounds of the IC50 table.
`O=C(O)/C(O)=C/c1ncc(CCc2ccccc2)o1` [Compound I-117]: the “inhibitory effect for HIV-1 integrase, stated in words (compound having high activity)” value (“inhibitory effect for HIV-1 integrase” for short) is listed as “high activity”.

Regarding `O/C(=C\c1cc(CCc2ccccc2)ncn1)c1ccccn1` [Compound I-111], the “inhibitory effect for HIV-1 integrase” value is reported as “high activity”.

For `O/C(=C\c1cc(CCc2ccccc2)ncn1)c1ncccn1` [Compound I-110], the “inhibitory effect for HIV-1 integrase” value is reported as “high activity”.

Turning to `Cc1cc(/C(O)=C/c2cc(CCc3ccccc3)ncn2)no1` [Compound I-103], the “inhibitory effect for HIV-1 integrase” value is listed as “high activity”.

In the case of `O=C(O)c1ccc(/C(O)=C/c2cc(CCc3ccccc3)ncn2)nc1` [Compound I-114], the “inhibitory effect for HIV-1 integrase” value was “high activity”.

As to `O=C(O)/C(O)=C/c1cc(C(F)Cc2ccccc2)ncn1` (stereo not shown) [Compound I-115], the “inhibitory effect for HIV-1 integrase” value is on record as “high activity”.

For `O/C(=C\c1cc(CCc2ccc(F)cc2)ncn1)c1ncccn1` [Compound I-109], the “inhibitory effect for HIV-1 integrase” value is “high activity”.

In the case of `O=C(O)/C(O)=C/c1ncc(CCc2ccccc2)s1` [Compound I-119], the “inhibitory effect for HIV-1 integrase” value is reported as “high activity”.
